Test results taken from ChEMBL document CHEMBL4483862, “Open-source discovery of chemical leads for next-generation chemoprotective antimalarials” (2018).

System: Plasmodium berghei
Test: Luciferase/luciferin-expressing antifolate-resistant parasites were used to infect a culture of HepG2 cells that were pre-incubated with compounds. Infected hepatocytes emit light due to the luciferase reaction. Assay results are presented as the percent inhibition of light emission compared to control. […]
Assay type: functional
Details: sporozoite; for IC50: read-out: LUCIFERASE INFECTION ASSAY - IC50; for IC90: read-out: LUCIFERASE INFECTION ASSAY - IC90

Structure (SMILES)	IC50 [µM]	IC90 [µM]
Cc1cccc2sc(NC(=O)c3cccc(S(=O)(=O)N4CCc5ccccc54)c3)nc12	> 10	> 10
CCc1cc2c(=O)n(Cc3ccco3)c(SCC(=O)N(C)C3CCS(=O)(=O)C3)nc2s1 (stereo unspecified)	> 10	> 10
N#CCCN(C(=O)COC(=O)c1ccc2c(c1)NC(=O)CS2)c1ccc2c(c1)OCCO2	> 10	> 10
COc1cc2nc(SCc3c(C)noc3C)n(CCC3=CCCCC3)c(=O)c2cc1OC	> 10	> 10
CCc1cccc(CC)c1N=C(S)NC(C)c1ccccc1 (stereo unspecified)	> 10	> 10
Cc1ccc2nc(C)c(CN3CCN(c4ccc([N+](=O)[O-])cc4Cl)CC3)n2c1	> 10	> 10
COc1cc2c(cc1OC)C1(NCC2)C(=O)Nc2ccccc21 (stereo unspecified)	> 10	> 10
Cc1cccc(NC(=O)CN(C)C(=O)/C=C/c2ccccc2)c1C	> 10	> 10
CCCc1ccc(C(=O)C(C)Sc2nnc(-c3ccc(OC(F)F)cc3)o2)cc1 (stereo unspecified)	> 10	> 10
COc1ccccc1NCC(=O)N/N=C/c1cc(C)c2cc(C(C)C)ccc(C)c1-2	> 10	> 10
N#C/C(=C\c1cn(Cc2ccccc2)nc1-c1cccnc1)c1ccc([N+](=O)[O-])cc1	0.786	1.62
CC(C)(C)c1ccc(OCC(=O)NNC(=O)Cc2csc(-c3ccccc3)n2)cc1	> 10	> 10
CCOC(=O)/C=c1\s/c(=C\c2ccc(Cl)cc2)c(=O)n1CC(=O)c1ccc(Cl)cc1	> 10	> 10
CCCN(C(=O)c1ccccc1CCc1ccccc1)c1nc(-c2ccc(Cl)cc2Cl)cs1	> 10	> 10
COC(=O)C(C(=O)CSc1nnc(-c2ccc(C(C)(C)C)cc2)n1C)=C1Nc2ccccc2N1	> 10	> 10
CCOc1ccccc1NC(=O)COC(=O)c1cc(S(=O)(=O)Nc2cccc(C)c2)ccc1C	> 10	> 10
CCCn1c(N)c(C(=O)CSc2nc3sc(C)c(C)c3c(=O)n2-c2ccccc2)c(=O)[nH]c1=O	> 10	> 10
Cc1ccc(Cn2nc(C)c3cc(C(=O)OCC(=O)c4cc(C)n(CC5CCCO5)c4C)sc32)cc1 (stereo unspecified)	> 10	> 10
Cc1cc(C)cc(N(C(=O)C23CC4CC(CC(C4)C2)C3)C2C=CS(=O)(=O)C2)c1 (stereo unspecified)	> 10	> 10
C/C(c1cccs1)=[N+](/[O-])C(C)/C(=N/O)c1ccco1 (stereo unspecified)	> 10	> 10
CC(C)N(CC(=O)Nc1ccc(Cl)cc1C(F)(F)F)C(=O)CNC(c1ccccc1)c1ccccc1	> 10	> 10
Cn1ccnc1C(=O)c1cc(SCC(=O)N2CCN(S(=O)(=O)c3ccc4ccccc4c3)CC2)nc2ccccc12	> 10	> 10
CCCn1c(=O)n(C)c(=O)c2c(SCc3cccc([N+](=O)[O-])c3)nc(CC(C)C)nc21	> 10	> 10
Cc1nnc(SCC(=O)Nc2ccc(Cl)cn2)n(N)c1=O	> 10	> 10
COc1cc2c(cc1NC(=O)C(C)NCC(c1ccccc1)N(C)C)oc1ccccc12 (stereo unspecified)	> 10	> 10
CCOC(=O)c1c(NC(=O)COC(=O)c2c(C)noc2C)sc(-c2ccccc2)c1C	> 10	> 10

Structure (SMILES)	IC50 [µM]	IC90 [µM]
Cc1c(NC(=O)c2cccc(Nc3nc(-c4cccs4)nc4ccccc34)c2)c(=O)n(-c2ccccc2)n1C	9.1	> 10
COc1cc(OC)cc(C(=O)N(Cc2ccccc2)c2nc(-c3ccc(Cl)cc3Cl)cs2)c1	> 10	> 10
CSCCC(NC(=O)c1ccc([N+](=O)[O-])cc1Cl)C(=O)OCC(=O)Nc1ccc(OC(F)(F)F)cc1 (stereo unspecified)	> 10	> 10
CCCCN(C(=O)CCC(=O)OCC(=O)NC(=O)NCC)c1c(N)n(CCC)c(=O)[nH]c1=O	> 10	> 10
CCc1sc2nc(SCc3cc(=O)n4cc(Br)ccc4n3)n(-c3cccc(OC)c3)c(=O)c2c1C	> 10	> 10
COC(=O)c1ccc2c(=O)nc(CSc3nnc(-c4ccccc4)c(-c4ccccc4)n3)[nH]c2c1	> 10	> 10
CC1CCc2sc(C(=O)OCC(=O)NCCN3C(=O)CSC3=S)cc2C1 (stereo unspecified)	> 10	> 10
Cc1cc(C)c(S(=O)(=O)N2CCN(C(=O)CCCOc3ccc(Cl)c(C)c3)CC2)c(C)c1	> 10	> 10
Cn1c(C(=O)N2CCN(C(c3ccccc3)c3ccccc3)CC2)cc2c(=O)n3ccccc3nc21	> 10	> 10
CCCn1c(=O)n(C)c(=O)c2c(SCc3cc(=O)oc4cc(CC)ccc34)nc(C(C)(C)C)nc21	> 10	> 10
Cc1c(C(=O)OCC(=O)N(Cc2ccccc2)Cc2ccccc2)sc2nc3n(c(=O)c12)CCC3	3.04	3.43
Nn1c(Cc2ccccc2F)nnc1SCC(=O)NCc1ccc2c(c1)OCO2	> 10	> 10
CC(=O)N1CCC(C(=O)Nc2cc(C(F)(F)F)ccc2NC2CCCCC2)CC1	> 10	> 10
C=CCN(C(=O)c1ccccc1OCc1c(C)noc1C)c1nc2c(s1)CCCC2	> 10	> 10
Cc1cc(C(=O)CSc2nnc(Cn3cnc4ccccc43)n2-c2ccccc2Cl)c(C)n1C	> 10	> 10
CSc1ccccc1NC(=O)CN(C)c1nc(CSc2ccccc2)nc2sc3c(c12)CCC3	> 10	> 10
CN(CCC#N)C(=S)NCCc1ccccc1	> 10	> 10
O=C(CN1CCN(C/C=C/c2ccccc2)CC1)NC(c1ccccc1)c1ccccc1	> 10	> 10
COc1ccc2c(Cn3ncc(Cl)c(Cl)c3=O)cc(=O)oc2c1	4.21	7.19
COc1ccccc1N(Cc1cc2ccc(C)cc2[nH]c1=O)S(=O)(=O)c1ccccc1	> 10	> 10
O=[N+]([O-])c1cc2c(cc1C(O)c1nnc(-c3ccccc3)o1)OCO2 (stereo unspecified)	1.69	8.01
COc1ccccc1-n1c(SCc2cc(=O)oc3c(C)c(C)ccc23)nc2ccccc2c1=O	> 10	> 10
Cc1sc2ncnc(Sc3ccccc3C(=O)NNc3c(Cl)cc(Cl)cc3Cl)c2c1C	> 10	> 10
CCOC(=O)c1[nH]c(C)c(C(=O)OCC(=O)Nc2ccc(S(=O)(=O)NC3=NCCCCC3)cc2)c1C	> 10	> 10
Cc1cc(C)c(C(=O)OCCC(NS(=O)(=O)c2ccc(Cl)cc2)c2ccccc2)c(C)c1 (stereo unspecified)	> 10	> 10
O=c1c(-c2ccc([N+](=O)[O-])cc2)c(-c2ccc(Cl)cc2)cc2[nH]c3ccccc3n12	> 10	> 10

Structure (SMILES)	IC50 [µM]	IC90 [µM]
CCCCCCc1nc(SCC(=O)Nc2cc(C)on2)c2c(=O)n(C)c(=O)n(CCC)c2n1	> 10	> 10
COc1cc(NC(=O)CSc2nc(N)c3c4c(sc3n2)CCCC4)c(C)cc1[N+](=O)[O-]	3.53	> 10
C=C(C)C1CC=C(C)/C(=N\NC(=O)C(=O)N/N=C2/CC(C(=C)C)CC=C2C)C1 (stereo unspecified)	> 10	> 10
CC(=O)Nc1ccc(C(=S)NCCCN2CCCC2=O)cc1	> 10	> 10
CCCCCCn1c(SCC(=O)Nc2sc(C(=O)N(CC)CC)c(C)c2C(=O)OCC)nc2ccccc21	> 10	> 10
CCOC(=O)c1sc(N)c(C#N)c1CSc1nnc(-c2ccncc2)n1-c1ccc(CC)cc1	> 10	> 10
CCCCOc1ccc(C(=O)Nc2ccc(N(c3ccccc3)C(C)C)cc2)cc1OCC	> 10	> 10
CC(C)(C)c1ccc(OCC(=O)N2CCC(C(N)=O)CC2)cc1	> 10.4	> 10.4
CC1CCc2nc3ccccc3c(C(=O)OCCOc3ccccc3Cl)c2C1 (stereo unspecified)	> 10	> 10
N#Cc1ccc(COC(=O)c2ccc(O)cc2)cc1	> 10	> 10
O=C(CN(Cc1ccccc1Cl)S(=O)(=O)/C=C/c1ccccc1)Nc1ccc(F)cc1Cl	> 10	> 10
CCN(CC1COc2ccccc2O1)C(=O)c1ccccc1CSc1nc2nc(C)cc(C)n2n1 (stereo unspecified)	> 10	> 10
COC(=O)c1ccc2c(=O)n(-c3ccccc3)c(SCC3CCCCO3)nc2c1 (stereo unspecified)	> 10	> 10
CC(C)OCCCNCC(O)COCc1ccccc1Cl (stereo unspecified)	> 10	> 10
CC(C)Cn1c(N)c(C(=O)COC(=O)Cn2c(C(F)(F)F)nc3ccccc32)c(=O)n(C)c1=O	> 10	> 10
O=C(CCN1C(=O)c2ccccc2C1=O)OCc1cc(=O)oc2cc(O)ccc12	> 10	> 10
O=C(COC(=O)c1ccc(-n2ncc(Cl)c(Cl)c2=O)cc1)Nc1ccc(F)cc1	> 10	> 10
O=C(O)c1ccc(N=C2C=C(NS(=O)(=O)c3ccc(Cl)cc3)c3ccccc3C2=O)cc1	> 10	> 10
Cc1ccc2c(C)cc(Sc3nc4ccccc4s3)nc2c1	> 10	> 10
CCOC(=O)c1c(C)[nH]c(/C=C2/C(=O)N(c3ccccc3)N=C2C)c1Cc1cccc(Cl)c1	> 10	> 10
CCOc1ccc(-c2nc(NC(=O)c3ccc(OC)c(S(=O)(=O)N(C)OC)c3)sc2C)cc1	> 10	> 10
Cc1ccc(S(=O)(=O)c2ccc(NNS(=O)(=O)c3cccc([N+](=O)[O-])c3)cc2)cc1	> 10	> 10
CCCCC1(c2ccccc2)NC(=O)N(CC(=O)Nc2ccc(C#N)c(Cl)c2)C1=O (stereo unspecified)	> 10	> 10
CCCn1c(CCC(=O)OCC(=O)c2ccc(NC(=O)CC(C)C)cc2)nc2cc(S(=O)(=O)N3CCCC3)ccc21	> 10	> 10
O=S(=O)(Nc1ccc(OC(F)F)c(Cl)c1)c1ccc(Cl)c(Cl)c1	> 10	> 10
O=C(Cn1cnc2sc(-c3ccccc3)cc2c1=O)Nc1nc(CN2CCCCC2)cs1	> 10	> 10
